In patent US9326506B2, “Preparation method, agricultural composition and applications of natural brassinolide analogs” (CHENGDU NEWSUN CROPSCIENCE CO., LTD, priority 2012, dated 2016):

System: rice
Assay: Low temperature assay on rice seedlings
Type: in vivo
Method: According to a low temperature assay, we measured parameters including plant height, number of leaf, area of leaf, number of tiller, weight of root at low temperature to completely determine effects of the natural brassinolide analogues on the resistance to low temperature of a plant.
The natural brassinolide analogues, BR1, BR2, BR3, BR4, BR5 and BR6, used herein, were those prepared by the method of Example 1. Respectively the analogues were dissolved into 95% (V/V) ethanol solution, and then diluted with pure water to 1 mg/L, 0.1 mg/L, 0.01 mg/L, 0.001 mg/L and 0.0001 mg/L. In addition, pure water was used as a control.
After rice seeds were disinfected by using 5% sodium hypochlorite solution treatment, they were rinsed with distilled water until their pH>7, placed into a petri dish in a dark incubator, and cultured by using water at 30° C.±2° C. for 9 days. Then respectively the nine-day-old etiolated seedlings of rice were immersed in the above solutions containing different concentrations of the natural brassinolide analogues or pure water, and cultured at the temperature of 1° C., 2° C., 3° C., 4° C. and 5° C. for 24 hr. The parameters including plant height, area of leaf and weight of root after 3, 6, 9 and 12 days and number of leaf and number of tiller after 12 days were measured.

Question: How did the Area of leaf (0.001 mg/l, 2 °C, 6 days) turn out when `CC[C@@H](C(C)C)[C@@H](O)[C@H](O)[C@@H](C)[C@H]1CCC2C3COC(=O)C4C[C@H](O)[C@H](O)C[C@]4(C)C3CC[C@@]21C` (stereo partly shown) [BR2] was run?
Answer: Its Area of leaf is 11.6 cm^2.

Question: What about the Height (0.001 mg/l, 2 °C, 6 days) of the same compound?
Answer: The Height was 7.1 cm.

Question: What about the Weight of root (0.001 mg/l, 2 °C, 6 days) of the same compound?
Answer: Its Weight of root is 3.0 g.

Question: And the Area of leaf (0.001 mg/l, 2 °C, 9 days)?
Answer: Its Area of leaf is 12.1 cm^2.

Question: What about the Height (0.001 mg/l, 2 °C, 9 days) of the same compound?
Answer: Its Height is 7.1 cm.

Question: What about the Weight of root (0.001 mg/l, 2 °C, 9 days) of the same compound?
Answer: The Weight of root was 3.2 g.

Question: And the Area of leaf (0.001 mg/l, 2 °C, 12 days)?
Answer: The Area of leaf was 13.1 cm^2.

Question: What about the Height (0.001 mg/l, 2 °C, 12 days) of the same compound?
Answer: The Height was 7.3 cm.

Question: What about the Number of leaf (0.001 mg/l, 2 °C, 12 days) of the same compound?
Answer: Its Number of leaf is 3.

Question: What about the Number of tiller (0.001 mg/l, 2 °C, 12 days) of the same compound?
Answer: Its Number of tiller is 3.

Question: What about the Weight of root (0.001 mg/l, 2 °C, 12 days) of the same compound?
Answer: Its Weight of root is 3.9 g.

Question: And the Area of leaf (0.001 mg/l, 3 °C, 3 days)?
Answer: Its Area of leaf is 10 cm^2.

Question: What about the Height (0.001 mg/l, 3 °C, 3 days) of the same compound?
Answer: The Height was 7 cm.

Question: And the Weight of root (0.001 mg/l, 3 °C, 3 days)?
Answer: The Weight of root was 2.5 g.

Question: What about the Area of leaf (0.001 mg/l, 3 °C, 6 days) of the same compound?
Answer: The Area of leaf was 12 cm^2.

Question: What about the Height (0.001 mg/l, 3 °C, 6 days) of the same compound?
Answer: The Height was 7.1 cm.

Question: And the Weight of root (0.001 mg/l, 3 °C, 6 days)?
Answer: The Weight of root was 2.6 g.

Question: What about the Area of leaf (0.001 mg/l, 3 °C, 9 days) of the same compound?
Answer: Its Area of leaf is 12.4 cm^2.

Question: What about the Height (0.001 mg/l, 3 °C, 9 days) of the same compound?
Answer: The Height was 7.3 cm.

Question: What about the Weight of root (0.001 mg/l, 3 °C, 9 days) of the same compound?
Answer: The Weight of root was 2.9 g.

Question: What about the Area of leaf (0.001 mg/l, 3 °C, 12 days) of the same compound?
Answer: The Area of leaf was 13 cm^2.

Question: What about the Height (0.001 mg/l, 3 °C, 12 days) of the same compound?
Answer: Its Height is 7.4 cm.

Question: What about the Number of leaf (0.001 mg/l, 3 °C, 12 days) of the same compound?
Answer: Its Number of leaf is 3.

Question: And the Number of tiller (0.001 mg/l, 3 °C, 12 days)?
Answer: Its Number of tiller is 2.

Question: And the Weight of root (0.001 mg/l, 3 °C, 12 days)?
Answer: Its Weight of root is 2.9 g.

Question: And the Area of leaf (0.001 mg/l, 4 °C, 3 days)?
Answer: Its Area of leaf is 10 cm^2.

Question: What about the Height (0.001 mg/l, 4 °C, 3 days) of the same compound?
Answer: The Height was 7.1 cm.

Question: And the Weight of root (0.001 mg/l, 4 °C, 3 days)?
Answer: The Weight of root was 2.5 g.

Question: And the Area of leaf (0.001 mg/l, 4 °C, 6 days)?
Answer: The Area of leaf was 12.1 cm^2.

Question: What about the Height (0.001 mg/l, 4 °C, 6 days) of the same compound?
Answer: The Height was 7.3 cm.

Question: And the Weight of root (0.001 mg/l, 4 °C, 6 days)?
Answer: Its Weight of root is 2.6 g.

Question: And the Area of leaf (0.001 mg/l, 4 °C, 9 days)?
Answer: Its Area of leaf is 13 cm^2.

Question: And the Height (0.001 mg/l, 4 °C, 9 days)?
Answer: Its Height is 7.5 cm.

Question: And the Weight of root (0.001 mg/l, 4 °C, 9 days)?
Answer: Its Weight of root is 2.9 g.

Question: And the Area of leaf (0.001 mg/l, 4 °C, 12 days)?
Answer: The Area of leaf was 13.5 cm^2.

Question: And the Height (0.001 mg/l, 4 °C, 12 days)?
Answer: Its Height is 7.5 cm.

Question: And the Number of leaf (0.001 mg/l, 4 °C, 12 days)?
Answer: The Number of leaf was 3.

Question: And the Number of tiller (0.001 mg/l, 4 °C, 12 days)?
Answer: The Number of tiller was 2.

Question: What about the Weight of root (0.001 mg/l, 4 °C, 12 days) of the same compound?
Answer: Its Weight of root is 2.9 g.

Question: And the Area of leaf (0.001 mg/l, 5 °C, 3 days)?
Answer: The Area of leaf was 10.2 cm^2.

Question: What about the Height (0.001 mg/l, 5 °C, 3 days) of the same compound?
Answer: Its Height is 7.2 cm.

Question: What about the Weight of root (0.001 mg/l, 5 °C, 3 days) of the same compound?
Answer: The Weight of root was 2.8 g.

Question: And the Area of leaf (0.001 mg/l, 5 °C, 6 days)?
Answer: Its Area of leaf is 14 cm^2.

Question: What about the Height (0.001 mg/l, 5 °C, 6 days) of the same compound?
Answer: The Height was 7.5 cm.

Question: And the Weight of root (0.001 mg/l, 5 °C, 6 days)?
Answer: The Weight of root was 2.9 g.

Question: What about the Area of leaf (0.001 mg/l, 5 °C, 9 days) of the same compound?
Answer: The Area of leaf was 15.4 cm^2.

Question: And the Height (0.001 mg/l, 5 °C, 9 days)?
Answer: Its Height is 7.8 cm.

Question: What about the Weight of root (0.001 mg/l, 5 °C, 9 days) of the same compound?
Answer: Its Weight of root is 3.0 g.

Question: And the Area of leaf (0.001 mg/l, 5 °C, 12 days)?
Answer: Its Area of leaf is 16 cm^2.

Question: What about the Height (0.001 mg/l, 5 °C, 12 days) of the same compound?
Answer: The Height was 8 cm.

Question: What about the Number of leaf (0.001 mg/l, 5 °C, 12 days) of the same compound?
Answer: Its Number of leaf is 3.

Question: And the Number of tiller (0.001 mg/l, 5 °C, 12 days)?
Answer: Its Number of tiller is 3.

Question: And the Weight of root (0.001 mg/l, 5 °C, 12 days)?
Answer: The Weight of root was 3.7 g.

Question: And the Area of leaf (0.01 mg/l, 1 °C, 3 days)?
Answer: Its Area of leaf is 10.1 cm^2.

Question: And the Height (0.01 mg/l, 1 °C, 3 days)?
Answer: The Height was 7.0 cm.

Question: What about the Weight of root (0.01 mg/l, 1 °C, 3 days) of the same compound?
Answer: The Weight of root was 2.8 g.

Question: What about the Area of leaf (0.01 mg/l, 1 °C, 6 days) of the same compound?
Answer: Its Area of leaf is 11.6 cm^2.

Question: What about the Height (0.01 mg/l, 1 °C, 6 days) of the same compound?
Answer: The Height was 7.2 cm.

Question: What about the Weight of root (0.01 mg/l, 1 °C, 6 days) of the same compound?
Answer: Its Weight of root is 3.0 g.

Question: And the Area of leaf (0.01 mg/l, 1 °C, 9 days)?
Answer: The Area of leaf was 12.4 cm^2.

Question: And the Height (0.01 mg/l, 1 °C, 9 days)?
Answer: The Height was 7.4 cm.

Question: And the Weight of root (0.01 mg/l, 1 °C, 9 days)?
Answer: Its Weight of root is 3.4 g.

Question: What about the Area of leaf (0.01 mg/l, 1 °C, 12 days) of the same compound?
Answer: Its Area of leaf is 13.6 cm^2.

Question: And the Height (0.01 mg/l, 1 °C, 12 days)?
Answer: Its Height is 7.5 cm.

Question: What about the Number of leaf (0.01 mg/l, 1 °C, 12 days) of the same compound?
Answer: Its Number of leaf is 3.

Question: And the Number of tiller (0.01 mg/l, 1 °C, 12 days)?
Answer: The Number of tiller was 3.

Question: And the Weight of root (0.01 mg/l, 1 °C, 12 days)?
Answer: Its Weight of root is 3.9 g.

Question: What about the Area of leaf (0.01 mg/l, 2 °C, 3 days) of the same compound?
Answer: The Area of leaf was 10.1 cm^2.

Question: What about the Height (0.01 mg/l, 2 °C, 3 days) of the same compound?
Answer: Its Height is 7.1 cm.

Question: What about the Weight of root (0.01 mg/l, 2 °C, 3 days) of the same compound?
Answer: The Weight of root was 2.8 g.

Question: What about the Area of leaf (0.01 mg/l, 2 °C, 6 days) of the same compound?
Answer: The Area of leaf was 11.1 cm^2.

Question: And the Height (0.01 mg/l, 2 °C, 6 days)?
Answer: Its Height is 7.2 cm.

Question: And the Weight of root (0.01 mg/l, 2 °C, 6 days)?
Answer: The Weight of root was 3.1 g.

Question: And the Area of leaf (0.01 mg/l, 2 °C, 9 days)?
Answer: Its Area of leaf is 12.5 cm^2.

Question: What about the Height (0.01 mg/l, 2 °C, 9 days) of the same compound?
Answer: Its Height is 7.5 cm.

Question: What about the Weight of root (0.01 mg/l, 2 °C, 9 days) of the same compound?
Answer: The Weight of root was 3.1 g.

Question: And the Area of leaf (0.01 mg/l, 2 °C, 12 days)?
Answer: Its Area of leaf is 13.4 cm^2.

Question: What about the Height (0.01 mg/l, 2 °C, 12 days) of the same compound?
Answer: The Height was 7.5 cm.

Question: And the Number of leaf (0.01 mg/l, 2 °C, 12 days)?
Answer: Its Number of leaf is 3.

Question: And the Number of tiller (0.01 mg/l, 2 °C, 12 days)?
Answer: The Number of tiller was 3.

Question: What about the Weight of root (0.01 mg/l, 2 °C, 12 days) of the same compound?
Answer: The Weight of root was 3.2 g.

Question: And the Area of leaf (0.01 mg/l, 3 °C, 3 days)?
Answer: The Area of leaf was 10.2 cm^2.

Question: What about the Height (0.01 mg/l, 3 °C, 3 days) of the same compound?
Answer: Its Height is 7.1 cm.

Question: And the Weight of root (0.01 mg/l, 3 °C, 3 days)?
Answer: Its Weight of root is 2.5 g.

Question: What about the Area of leaf (0.01 mg/l, 3 °C, 6 days) of the same compound?
Answer: Its Area of leaf is 12 cm^2.

Question: What about the Height (0.01 mg/l, 3 °C, 6 days) of the same compound?
Answer: The Height was 7.2 cm.

Question: And the Weight of root (0.01 mg/l, 3 °C, 6 days)?
Answer: The Weight of root was 2.6 g.

Question: What about the Area of leaf (0.01 mg/l, 3 °C, 9 days) of the same compound?
Answer: Its Area of leaf is 12.6 cm^2.
